Laboratory results reported in patent US10457673B2, “Heteroatom containing deoxyuridine triphosphatase inhibitors” (University of Southern California, priority 2014, dated 2019).

What was measured:
[1] = test system: colorectal (HCT116 and SW620) cell line models; assay: MTS growth inhibition assay; type: cell-based; details: increasing concentrations of 5-FU between 0 and 100 μmol/L; both colorectal cancer cell lines evaluated
Procedure: The Cell Titer AQueous MTS assay (Promega) is carried out according to the manufacturers guidelines. […] The combination effect is determined by the combination index (CI) method utilizing Calcusyn software (Biosoft, Ferguson, Mo.). Fraction affected (FA) is calculated from the percent growth inhibition: FA=[…]. CI values <1, synergism; 1-1.2, additive and >1.2, antagonism.
MTS growth inhibition assays are performed to evaluate the effectiveness of the test compounds alone and in combination with the fluoropyrimidine thymidylate synthase (TS) inhibitor 5-fluorouracil (5-FU) at inhibiting the growth of colorectal (HCT116 and SW620) cell line models. […] Simultaneous treatment with increasing concentrations of 5-FU and a test compound at fixed concentrations of 25 μmol/L is determined.

[2] = test system: colorectal (HCT116), breast (MCF-7) and non-small cell lung (H1299, A549, H358 and H460) cell line models; assay: Colony forming assay; type: cell-based; details: increasing concentrations of FUdR between 0.5 and 2.5 μmon; all cell lines evaluated
Procedure: Colony forming assay showing the ability of colon (SW620, HCT116), non-small cell lung (A549, H460, H1299 and H358) and breast (MCF7) cancer cells to survive and proliferate following transient 24 hour exposure to test compounds, FUdR and combinations are determined. Specifically, cells are seeded at densities between 50 and 100 cells/well in 24-well plates. […] After 24 hours, drug is removed, cells are rinsed and allowed to outgrow for 10-14 days. At the conclusion of the outgrowth, cells are fixed in 60% ice cold methanol and stained with 0.1% crystal violet, scanned and counted. Data is presented as percentage of untreated controls (mean±SD). Fraction affected and combination indexes are calculated according to the method of Chou and Talalay where <1 is indicative of a synergistic drug interaction.
In colorectal cancer cells, concentrations of test compounds ranging e.g., from 3.1 μmol/L to 50 μmol/L are combined with 0.5 μmol/L FUdR in HCT116 cells and 1 μmol/L FUdR in SW620 cells.

Row | SMILES | growth inhibition [1] | colonies formed [2]
1 | O=c1[nH]cc(F)c(=O)[nH]1 [Example 5-FU, 5-fluorouracil] | dose-dependent increases in growth inhibition | 
2 | O=c1[nH]c(=O)n([C@H]2C[C@H](O)[C@@H](CO)O2)cc1F [FUdR, fluorodeoxyuridine] |  | dose-dependent decreases in colonies formed
